# Legend:
# Assay type in all cases: cell-based
# [1] = tested on: NSCLC cell lines; test: Apoptosis-associated changes by DiOC63 (Δψm) and propidium iodide (viability) staining
# From the text: The fluorochromes, 3,3′-dihexyloxacarbocyanine iodide (DiOC63) and propidium iodide (PI) were employed to determine different apoptosis-associated changes. DiOC63 was used for the loss of mitochondrial transmembrane potential (Δψm) and PI was used for the loss of viability.
# [2] = tested on: NSCLC cell lines; test: Anti-proliferative/pro-apoptotic effects in NSCLC cell lines with different EGFR and p53 mutation status
# Procedure: (§1) Non-Small Cell Lung Cancer cell lines with different EGFR and p53 mutation status were used. Variable doses of Compound I or cisplatin were used to induce death or proliferative death of the cells. A549 cells were transfected with siRNAs, and transfected cells were cultured for 48 hours prior to the administration of the drugs to attain the maximal down-regulation of the target proteins.
# [3] = tested on: A549 cells; test: siRNA knockdown of apoptosis pathway components in A549 cells, Compound I induced cell death
# Procedure: as §1
structure (smiles),measurement,setting,value
"COc1cccc(Nc2ncnn3ccc(CN4CC[C@@H](N)[C@H](O)C4)c23)c1 [Compound I, 4-Amino-1-[[4-[(3-methoxyphenyl)amino]pyrrolo [2,1-f][1,2,4]triazin-5-yl]methyl]-(3R,4R)-3-piperidinol]",dissipation of Δψm (marker of early apoptosis),[1]; DiOC63 staining,induced dissipation of Δψm
same,"incorporation of PI (marker of late apoptosis, loss of viability)",[1]; propidium iodide staining,incorporation of PI
same,effect of pan-caspase inhibitor z-VAD.fmk on the loss of viability,[1]; with z-VAD.fmk,no effect
same,effect of pan-caspase inhibitor z-VAD.fmk on the reduction of the Δψm,[1]; with z-VAD.fmk,only a minor protective effect
same,order of sensitivity of cell lines,"[2]; NCI-H1975, NCI-H1650, NCIH1299, A549",NCI-H1975>>NCI-H1650=NCIH1299>A549
same,anti-proliferative/pro-apoptotic effects,"[2]; all NSCLC cell lines tested, including wild-type EGFR and T790M mutant",induced anti-proliferative/pro-apoptotic effects in all NSCLC cell lines tested
same,effect of caspase-2 down-regulation on Compound I induced cell-death,[3]; 24 and 48 hours,"limited protection against Compound I induced cell-death at 24 hours, but not at 48 hours"
same,"effect of Bcl-2 down-regulation, alone or in combination with Bcl-XL, on the effect of Compound I",[3]; both 24 and 48 hours,strongly sensitized A549 cells

# Reference: patent US20100136137A1, “THERAPEUTIC COMBINATION OF A PANHER/VEGFR2 KINASE INHIBITOR AND A PLATINUM COMPOUND” (Bristol-Meyers Squibb Company, priority 2006, published 2010)
